Among the data in ChEMBL document CHEMBL1201862, “PubChem BioAssay data set” (2004) are CC50, EC50 and AC50 values, retold here.

The nature of series [1]: viability of uninfected HEp-2 cells – cell-based, HTS, cytotoxicity control for RSV inhibitor project, dose response (AID 2410). In kind it is functional. Conditions: human respiratory syncytial virus.
Series [2] deals with T1, Heat shock factor protein 1 (Mus musculus, UniProt P38532).
T1 sequence (P38532 whole entry): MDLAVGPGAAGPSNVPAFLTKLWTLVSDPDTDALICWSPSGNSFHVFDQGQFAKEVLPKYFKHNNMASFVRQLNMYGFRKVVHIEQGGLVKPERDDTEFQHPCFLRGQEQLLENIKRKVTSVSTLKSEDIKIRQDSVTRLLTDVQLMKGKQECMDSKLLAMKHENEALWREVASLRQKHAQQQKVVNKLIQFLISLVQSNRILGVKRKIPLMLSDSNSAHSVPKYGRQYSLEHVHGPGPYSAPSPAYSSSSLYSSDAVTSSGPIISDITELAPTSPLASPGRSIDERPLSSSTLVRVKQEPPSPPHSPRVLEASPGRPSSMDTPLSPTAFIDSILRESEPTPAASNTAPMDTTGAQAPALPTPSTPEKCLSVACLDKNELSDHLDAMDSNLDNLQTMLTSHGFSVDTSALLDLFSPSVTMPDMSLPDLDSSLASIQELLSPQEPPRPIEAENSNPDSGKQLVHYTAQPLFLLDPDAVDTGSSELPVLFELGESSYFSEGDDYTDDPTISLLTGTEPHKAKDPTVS
Briefly: enhancement of HSF1-driven luciferase signal – cell-based, NIH3T3, luminescence, dose retest, confirmation (AID 435004).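 Further: stress induced by proteasome inhibitor MG132 added 30 min after compound; luciferase reporter driven by HSF1 response element in NIH3T3 cells; actives raise luminescence as potentiators of the MG132 stress response.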 The series is classed as functional.

The nature of series [3]: Luminescence Cell-Based Dose Retest to Confirm Inhibitors of Cancer Stem Cells. [Related pubchem assays (depositor defined):AID2717, AID2721]. In kind it is functional. Particulars: Homo sapiens.
The next series deals with Cytochrome P450 2C9 (Homo sapiens, UniProt P11712).
Another series addresses Cytochrome P450 2C19 (Homo sapiens, UniProt P33261). The series can be described thus: Cytochrome panel assay with activity outcomes. Panel member name: p450-cyp2c19 Compounds with AC50 equal or less than 10 uM are considered active. In kind it is functional.
The next series deals with T2, Cytochrome P450 1A2 (Homo sapiens, UniProt P05177).
T2 sequence (P05177 whole entry): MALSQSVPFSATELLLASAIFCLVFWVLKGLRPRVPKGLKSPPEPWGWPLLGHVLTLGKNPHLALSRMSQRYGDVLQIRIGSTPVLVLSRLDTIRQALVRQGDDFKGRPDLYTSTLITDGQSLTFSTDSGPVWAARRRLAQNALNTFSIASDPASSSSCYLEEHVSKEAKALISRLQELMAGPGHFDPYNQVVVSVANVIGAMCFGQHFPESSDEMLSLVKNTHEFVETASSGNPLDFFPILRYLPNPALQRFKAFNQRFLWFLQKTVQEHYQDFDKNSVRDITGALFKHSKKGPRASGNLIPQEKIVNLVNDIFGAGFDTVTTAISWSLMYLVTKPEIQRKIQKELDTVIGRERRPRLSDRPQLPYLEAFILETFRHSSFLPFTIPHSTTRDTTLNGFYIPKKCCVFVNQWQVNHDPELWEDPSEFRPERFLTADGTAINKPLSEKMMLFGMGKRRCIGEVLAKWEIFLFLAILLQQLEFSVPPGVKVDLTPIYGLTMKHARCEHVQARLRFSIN

For the next series, the target named is Cytochrome P450 3A4 (Homo sapiens, UniProt P08684).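 Further: CYP3A4 tested as one member of a cytochrome P450 panel screen.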
The subject of series [4] is Streptococcus sp. 'group A'. The series can be described thus: Streptococcus pyogenes SK(-)GAS viability under kanamycin – luminescence, BacTiterGlo, confirmation, counter-screen for streptokinase expression inhibitor project, dose response (AID 1900). In kind it is functional, organism-based. For orientation: The purpose of a counterscreen is to sort out artefacts and off-target activity.

Another series has as its system Streptococcus. The series can be described thus: GAS UMAA2166 growth inhibition – luminescence, BacTiterGlo, counter-screen for streptokinase expression inhibitor project, dose response (AID 1915).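 Further: potency for reduction of bacterial viability or growth.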 In kind it is functional, organism-based.
A further series concerns the target T3, Streptokinase A (Streptococcus pyogenes serotype M1, UniProt P10520).
T3 sequence (P10520 whole entry): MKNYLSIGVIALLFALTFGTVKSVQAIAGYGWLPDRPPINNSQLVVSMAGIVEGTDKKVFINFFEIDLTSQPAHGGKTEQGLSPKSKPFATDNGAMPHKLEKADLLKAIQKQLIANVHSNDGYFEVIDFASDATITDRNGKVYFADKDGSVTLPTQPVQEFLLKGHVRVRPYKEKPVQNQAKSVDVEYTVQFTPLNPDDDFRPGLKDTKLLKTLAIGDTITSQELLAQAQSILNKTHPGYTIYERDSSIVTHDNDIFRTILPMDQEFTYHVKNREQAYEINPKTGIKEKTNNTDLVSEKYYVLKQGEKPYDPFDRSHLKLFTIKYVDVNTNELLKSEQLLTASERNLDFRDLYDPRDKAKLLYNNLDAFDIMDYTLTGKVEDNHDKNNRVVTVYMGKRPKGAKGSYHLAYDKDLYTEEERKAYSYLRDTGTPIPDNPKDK
Briefly: viability-normalized secreted streptokinase activity reduction – plasminogen activation absorbance, OD405, dose response (AID 1914).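 Further: secreted streptokinase activity via plasminogen activation per viability signal from cell pellet.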 The series is classed as functional, Streptococcus pyogenes M1 GAS.

Series [5] in a line: Trypanosoma cruzi growth suppression in host cells – NIH3T3 host cells, beta-gal luminescence, confirmation (AID 2044).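 Further: intracellular parasites grown in NIH/3T3 mouse fibroblasts as host cells; luminescent beta-galactosidase reporter signal from transgenic T. cruzi replicating inside host cells; inhibitors lower the luminescence signal.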 In kind it is functional, cell-based.
Series [6] in a line: NIH3T3 cell viability loss – ATP luminescence, mouse fibroblasts, counter-screen, dose response (AID 2010).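 Further: cells exposed to compound for about 90 hours before reading.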 The series is classed as functional, cell-based.

Active and inactive are the calls of the source. Bounds are passed on as bounds.

Cytochrome P450 3A4, sequence (P08684 whole entry): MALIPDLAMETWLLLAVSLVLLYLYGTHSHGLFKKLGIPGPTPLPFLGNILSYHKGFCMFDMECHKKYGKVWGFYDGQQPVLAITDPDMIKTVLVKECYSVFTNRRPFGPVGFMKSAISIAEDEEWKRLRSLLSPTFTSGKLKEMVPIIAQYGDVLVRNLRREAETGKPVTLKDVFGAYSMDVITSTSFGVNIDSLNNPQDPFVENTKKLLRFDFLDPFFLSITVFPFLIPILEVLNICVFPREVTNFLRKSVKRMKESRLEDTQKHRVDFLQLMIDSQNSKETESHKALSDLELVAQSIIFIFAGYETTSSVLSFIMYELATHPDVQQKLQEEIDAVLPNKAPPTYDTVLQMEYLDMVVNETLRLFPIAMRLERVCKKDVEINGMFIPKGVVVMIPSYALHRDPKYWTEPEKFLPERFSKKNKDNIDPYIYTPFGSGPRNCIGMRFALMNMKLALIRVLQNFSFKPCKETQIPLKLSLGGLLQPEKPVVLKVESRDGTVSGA
Cytochrome P450 2C19, sequence (P33261 whole entry): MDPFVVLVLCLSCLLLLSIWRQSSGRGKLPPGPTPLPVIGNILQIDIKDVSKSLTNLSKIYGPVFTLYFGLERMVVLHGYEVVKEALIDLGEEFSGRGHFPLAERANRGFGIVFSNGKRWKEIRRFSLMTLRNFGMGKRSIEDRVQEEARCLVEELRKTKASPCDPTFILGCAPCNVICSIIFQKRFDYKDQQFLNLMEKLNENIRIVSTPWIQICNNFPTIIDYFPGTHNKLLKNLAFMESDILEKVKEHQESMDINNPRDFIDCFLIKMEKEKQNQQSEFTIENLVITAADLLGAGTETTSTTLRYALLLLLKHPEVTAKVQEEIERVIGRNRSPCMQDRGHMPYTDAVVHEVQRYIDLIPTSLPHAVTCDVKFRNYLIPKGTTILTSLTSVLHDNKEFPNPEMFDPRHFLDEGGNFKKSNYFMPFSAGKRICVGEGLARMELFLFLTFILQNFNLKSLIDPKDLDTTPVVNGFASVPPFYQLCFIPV
Cytochrome P450 2C9, sequence (P11712 whole entry): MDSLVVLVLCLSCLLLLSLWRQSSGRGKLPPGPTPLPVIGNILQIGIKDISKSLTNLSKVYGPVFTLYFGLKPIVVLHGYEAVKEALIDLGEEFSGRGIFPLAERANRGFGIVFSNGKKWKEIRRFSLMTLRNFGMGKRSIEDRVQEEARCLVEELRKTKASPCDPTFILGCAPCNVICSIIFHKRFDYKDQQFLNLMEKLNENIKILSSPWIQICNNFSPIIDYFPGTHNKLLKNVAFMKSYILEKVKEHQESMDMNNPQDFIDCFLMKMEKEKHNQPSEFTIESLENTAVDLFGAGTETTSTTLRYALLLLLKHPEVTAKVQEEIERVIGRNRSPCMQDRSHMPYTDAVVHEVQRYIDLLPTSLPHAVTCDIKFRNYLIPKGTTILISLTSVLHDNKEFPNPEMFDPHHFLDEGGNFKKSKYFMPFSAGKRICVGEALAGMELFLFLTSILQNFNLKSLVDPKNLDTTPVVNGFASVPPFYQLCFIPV

As a reminder, the CC50 is the concentration that lowers cell viability or growth by half. On to `CCO[C@@H]1OC(C(=O)Nc2ccccc2)=C[C@H](c2csc3ccccc23)[C@H]1CCCO`, for which, in series [1], the CC50 is 22.4 µM (active).
By EC50 is commonly meant the concentration giving half of the maximal effect. In the case of `Oc1cccnc1Sc1cccc(C(F)(F)F)c1`, in [2], the EC50 is 165 µM (active).
For the molecule `CCCc1cc(O)nc(SCC(=O)c2cc(C)n(C3CC3)c2C)n1`, in series [1], the 50% cytotoxic concentration (CC50) was 43.1 µM (active).
Same read-out and setting: the result for `COc1ccccc1NC(=O)CC(=O)CSc1nnc(-c2ccc(C)cc2)n1C` reads 17.7 µM (active); that for `O=C(CCC1N=C2c3ccccc3N=C(SCc3ccc(Cl)cc3)N2C1=O)NCc1ccco1` (stereo not drawn), 25.4 µM (active).
For `COc1cc(NC(=O)c2cc([N+](=O)[O-])ccc2NC(=O)CNC2CCCCC2C)cc(OC)c1` (stereo not drawn), the EC50 in [2] is > 260 µM (inactive).
As to `Cc1ccc(C(=O)NCC(C)NC(=O)c2ccc(C)c([N+](=O)[O-])c2)cc1[N+](=O)[O-]` (stereo not drawn), the EC50 in series [2] is > 260 µM (inactive).
As a reminder, the AC50 is the midpoint of the concentration-response curve, whichever way the signal moves. Take `Oc1ccc(Nc2nc(-c3ccccc3O)nc3ccccc23)cc1`: the AC50 in [3] is 2.71 µM (active).
For the molecule `O=C(Nc1cc(Cl)ccc1O)C1CC(c2ccccc2Cl)=NO1` (stereo not drawn), the 50% cytotoxic concentration (CC50) in series [1] was > 50 µM (active).
With `COC(=O)C1C(=O)C2=C(CC1C)N=C(C)/C(=C(/O)OCc1ccc(OC)cc1)C2c1ccc(C)o1` (stereo not drawn), the EC50 in series [2] was > 260 µM (inactive).
On to `Clc1ccc2c(c1)C1OCCC1C(c1ccco1)N2` (stereo not drawn), for which the half-maximal cytotoxic concentration (CC50) in series [1] is 33.4 µM (active).
Regarding `O=C(CCN1C(=O)C2C3C=CC(C3)C2C1=O)N1CCN(c2cccc(Cl)c2)CC1` (stereo not drawn), the concentration at half-maximal activity (AC50) on Cytochrome P450 2C9 is 11.2 µM (inconclusive); at Cytochrome P450 2C19 (read-out: AC50), 25.1 µM (inconclusive).
Regarding `N#Cc1cccc(Nc2c3c(nc4ccccc24)CCCC3)c1`, the half-maximal cytotoxic concentration (CC50) in series [1] was 15.9 µM (active).
`COc1cc(/C=C/C(=O)c2c(O)ccc3c(C)cc(=O)oc23)ccc1O`: the EC50 in [2] is 15 µM (active).
As for `COc1ccc(Br)cc1CN1CCCCCCC1`, the EC50 in [2] was > 260 µM (inactive).
Regarding `CN(/C(=N\S(=O)(=O)c1ccccc1)c1ccccc1)c1ccc(O)cc1`, in series [2], the EC50 is > 260 µM (inactive).
Consider `NC(=O)CC(NC(=O)Cc1cccc2ccccc12)c1ccc(NCc2ccc(F)c(F)c2)c([N+](=O)[O-])c1` (stereo not drawn), for which, in series [3], the AC50 was 11.2 µM (active).
Take `CSc1nc2ccccc2n1CC(=O)Nc1cc(C(F)(F)F)ccc1N1CCOCC1`: in series [1], the CC50 was 42.4 µM (active).
With `O=c1c(-c2ccc(F)cc2)nc2cnc(N3CCOCC3)nc2n1CCc1ccccc1`, the values for the AC50 at Cytochrome P450 2C19 (read-out: AC50) and at Cytochrome P450 1A2 were 39.8 µM (inconclusive) and 25.1 µM (inconclusive), respectively.
`COc1ccccc1/C=C/C=N/n1c(S)nnc1-c1[nH]nc2c1CCC2`: the concentration at half-maximal activity (AC50) in [3] was 13.7 µM (active).
As to `COc1ccc(S(=O)(=O)Cc2ccc(C(=O)NCCCN(C)c3ccccc3)o2)cc1`, the EC50 in series [2] is > 260 µM (inactive).
As to `N#Cc1cccc(NC(=O)N2CCCC3(CCN(C(=O)Oc4ccccc4)CC3)C2)c1`, the AC50 was 25.1 µM (inconclusive) on Cytochrome P450 2C9, 12.6 µM (inconclusive) on Cytochrome P450 3A4, 25.1 µM (inconclusive) at Cytochrome P450 2C19 (read-out: AC50) and 15.8 µM (inconclusive) at Cytochrome P450 1A2.
Regarding `COc1ccc(-c2cc(C(=O)NCc3ccco3)c3ccccc3n2)cc1`, in series [2], the EC50 is 158 µM (active).
Take `O=C(O)c1cc(O)c2c(Cl)cc(Cl)cc2n1`: the AC50 entry at Cytochrome P450 2C19 is “inconclusive”; at Cytochrome P450 1A2, 39.8 µM (inconclusive).
Take `COc1cccc(NP(=O)(Oc2ccc(Cl)cc2)Oc2ccc(Cl)cc2)c1`: the half-maximal activity concentration (AC50) in series [3] was 3.11 µM (active). The EC50 in series [4] is 6.17 µM (active); in the series on Streptococcus, 11.2 µM (active); on Streptokinase A, 4.68 µM (active).
Consider `C=CCc1ccc(OCC(O)CO)c(OC)c1` (stereo not drawn), for which the EC50 in series [2] is > 260 µM (inactive).
For `CC(C)NC(=O)c1c(O)c2cccc3c2n(c1=O)CCC3`, the cytotoxic concentration (CC50) in series [1] was 17.3 µM (active).
For `COc1cc(-n2ccnc2SC)c(Cl)cc1Cl`, the results for the concentration at half-maximal activity (AC50) at Cytochrome P450 2C9, at Cytochrome P450 2C19 (read-out: AC50) and at Cytochrome P450 1A2 were 39.8 µM (inconclusive), 7.08 µM (inconclusive) and 15.8 µM (inconclusive), respectively.
Take `CCOC(=O)c1nn(-c2ccc(F)cc2)c(-c2ccccc2)c1C(=O)c1ccccc1`: in series [3], the concentration at half-maximal activity (AC50) is 5.46 µM (active).
As for `COc1ccc(Cc2nnc(SCC(=O)Nc3ccc(N4CCOCC4)cc3)o2)cc1`, the EC50 in [2] is > 260 µM (inactive).
Take `CCC1(C)Cc2c(sc3nc(SC)n(Cc4ccccc4)c(=O)c23)CO1` (stereo not drawn): the half-maximal activity concentration (AC50) in series [3] is 0.259 µM (active).
Turning to `O=c1cc(-c2ccccc2Cl)oc2c(NS(=O)(=O)c3cccs3)ccc(O)c12`, the CC50 in series [1] is 22 µM (active).
Take `COc1ccc2[nH]c3c(NCCCN4CCCC4=O)ncnc3c2c1`: the AC50 at Cytochrome P450 2C9 is 3.98 µM (inconclusive); on Cytochrome P450 3A4, 17.8 µM (inconclusive); on Cytochrome P450 2C19 (read-out: AC50) it was 39.8 µM (inconclusive).
With `O=C(CCc1ccc(S(=O)(=O)N2CCOCC2)cc1)N1CCN(Cc2ccc3c(c2)OCO3)CC1`, the EC50 in series [2] was > 260 µM (inactive).
`COC(=O)[C@@]1(Cc2ccccc2)[C@H]2c3cc(C(=O)N(C)C)n(Cc4ccc(S(C)(=O)=O)cc4)c3C[C@H]2CN1C(=O)c1ccccc1`: the AC50 at Cytochrome P450 2C9 is 25.1 µM (inconclusive); on Cytochrome P450 2C19 (read-out: AC50) it was 39.8 µM (inconclusive); at Cytochrome P450 1A2 it was 31.6 µM (inconclusive).
As to `CCOc1ccc(OCc2ccc(C(=O)N3CCc4ccccc4C3)o2)cc1`, the CC50 in [1] was 23.4 µM (active). Besides, the half-maximal activity concentration (AC50) on Cytochrome P450 3A4 is 39.8 µM (inconclusive).
For the molecule `COc1ccc(NC(=O)c2[nH]cnc2C(=O)N[C@@H](CC(C)C)C(=O)OC(C)(C)C)cc1`, the AC50 in series [3] is 7.16 µM (active). Also, the EC50 in series [4] is 4.08 µM (active); in the series on Streptococcus it was 11.6 µM (active); on Streptokinase A, > 150 µM (not active).
As for `Cc1ccc(OCCN2CCN(c3nc(NCc4ccco4)c4ccccc4n3)CC2)cc1`, the AC50 in series [3] is 4.7 µM (active). The EC50 is 1.35 µM (active) in series [5] and 6.18 µM (active) in [6].
Turning to `Cc1cccc(C(=O)NNC(=O)C(=O)NC(C)(C)C)c1`, the AC50 at Cytochrome P450 2C19 (read-out: AC50) was 11.2 µM (inconclusive).
Consider `FC(F)(F)c1cnc(Sc2nc3nccc(-c4ccc(Cl)cc4)n3n2)c(Cl)c1`, for which the EC50 in [2] is > 260 µM (inactive); in [5] it was 1.72 µM (active); in series [6] it was > 30 µM (not active).
